Source: patent US20250367211A1, “RESCUE TREATMENT OF POST OPERATIVE NAUSEA AND VOMITING” (ACACIA PHARMA LIMITED, priority 2017, published 2025)

What was measured:
[1] = compared with the (R+)-enantiomer; cited from earlier work
[2] = test system: patients with PONV who had not received prior prophylaxis; test: Clinical trial, treatment of PONV in patients without prior prophylaxis; assay type: in vivo, human; settings: no prior prophylaxis
Procedure: In another clinical trial conducted by the applicant, amisulpride at doses of 5 mg and 10 mg were compared with placebo for the treatment of PONV, in patients who had not received prior prophylaxis.

[3] = test system: adult patients with established PONV who have had prior PONV prophylaxis; test: Study 1: rescue treatment of established PONV after failed prior prophylaxis; assay type: in vivo, human; settings: for complete response (CR) rate: no emesis 30 min to 24 h and no rescue medication in 24 h, placebo 28.5%
Procedure: A randomised, double-blind, placebo-controlled study of amisulpride for IV injection as treatment of established postoperative nausea and vomiting, in patients who have had prior prophylaxis was conducted. The primary aim of the study was to compare the efficacy of 5 mg and 10 mg amisulpride to placebo as treatment of established PONV, in patients who have had prior PONV prophylaxis.
The study was performed in adult patients (≥18 years) with an expected duration of inhalational anaesthesia of at least 1 hour, who experienced PONV in the 24-hour period after surgery, having had prior PONV prophylaxis.
Amisulpride at a dose of 5 mg or 10 mg or matching placebo was given once by slow IV administration, over about 2 minutes.
The primary efficacy variable was the dichotomous variable: success or failure of initial PONV treatment, where success is defined as no emetic episodes (vomiting or retching) from 30 minutes to 24 hours after administration of study medication and no administration of antiemetic rescue medication at any time in the 24-hour period after study medication (a “complete response”).
The secondary efficacy variables included: • The occurrence and severity of nausea (a VRS score >0) and of significant nausea (a VRS score ≥4), including measures of the time course of nausea, such as area under the curve for nausea scores for time periods up to 24 hours. • The occurrence of vomiting (to include retching) after administration of study medication. • Use of anti-emetic rescue medication. • Time to failure of initial PONV treatment. • Sub-analyses of success and failure according to various parameters, including by time of onset of PONV relative to end of surgery and by sex.

[4] = test system: adult surgical patients at moderate-to-high risk of suffering PONV; test: Phase II dose-ranging trial, IV amisulpride for PONV prophylaxis; assay type: in vivo, human
Procedure: In a multi-centre, double-blind, randomised, dose-ranging Phase II trial (conducted by the applicant), amisulpride was given intravenously to adult surgical patients at moderate-to-high risk of suffering PONV (prophylaxis), at doses of 1 mg, 5 mg and 20 mg, with a fourth group receiving placebo.

[5] = test system: adult surgical patients at high risk of suffering PONV; test: Phase III trial, PONV prophylaxis in combination with a standard anti-emetic; assay type: in vivo, human; settings: 5 mg in combination with a standard anti-emetic, 1147 evaluable patients, p<0.001 vs placebo plus standard anti-emetic (53%)
[6] = test system: adult surgical patients at moderate-to-high risk of suffering PONV; test: Two Phase III placebo-controlled trials, PONV prophylaxis; assay type: in vivo, human; settings: 5 mg, 626 evaluable patients, p<0.01 vs placebo (59%)

| SMILES | share of therapeutic activity of amisulpride [1] | treatment of PONV versus placebo ([2]; 5 mg) | treatment of PONV versus placebo ([2]; 10 mg) | clinical efficacy, 5 mg versus 10 mg dose ([2]; treatment of PONV) | complete response (CR) rate ([3]; 5 mg once by slow IV, 237 patients, p = 0.109) | complete response (CR) rate ([3]; 10 mg once by slow IV, 230 patients, p = 0.003) | efficacy as PONV rescue treatment, 10 mg versus 5 mg dose ([3]; patients with prior unsuccessful PONV prophylaxis) | incidence of PONV ([4]; 1 mg intravenously, p<0.05 vs placebo (69%)) | incidence of PONV ([4]; 5 mg intravenously, p<0.01 vs placebo (69%)) | incidence of PONV compared to placebo ([4]; 20 mg intravenously, placebo 69%, not stated as significant) | incidence of PONV [5] | incidence of PONV [6] |
| --- | --- | --- | --- | --- | --- | --- | --- | --- | --- | --- | --- | --- |
| CCN1CCCC1CNC(=O)c1cc(S(=O)(=O)CC)c(N)cc1OC (stereo not drawn) [(S−)-amisulpride] | almost all of the therapeutic activity |  |  |  |  |  |  |  |  |  |  |  |
| CCN1CCCC1CNC(=O)c1cc(S(=O)(=O)CC)c(N)cc1OC (racemic) [amisulpride] |  | significantly better than placebo | significantly better than placebo | no difference | 33.8% (p = 0.109) | 41.7%, (p = 0.003) | more effective | 48% | 40% | lower | 42% | 48% |
